Laboratory results taken from patent publication US20130190275A1, “COMBINED THERAPIES OF ANTIPSYCHOTIC DRUGS AND TETRACYCLINES IN THE TREATMENT OF PSYCHIATRIC DISORDERS” (MOR RESEARCH APPLICATIONS LTD., priority 2006, published 2013).

Tests used:
MK801 treated rats [1] = assay: Habituation of the Acoustic Startle Response (ASR), MK801 animal model; type: in vivo, rat
Experimental: (§1) Acoustic Startle Response (ASR) and Pre-Pulse Inhibition (PPI): Both experimental paradigms were performed in a room that was adjacent to the laboratory facilities and the animal stall and that was not used for other experiments. The animals were tested in squad of two with startle chambers counterbalanced across the different experimental groups. Startle response and prepulse inhibition were measured using two ventilated startle chambers (SR-LAB system, San Diego Instruments, San Diego, Calif.). Each chamber consisted of a Plexiglas cylinder resting on a platform inside a sound-attenuated, ventilated chamber. A high-frequency loudspeaker inside the chamber produced both a continuous broadband background noise of 70 dB and the various acoustic stimuli. Movement inside the tube was detected by a piezoelectric accelerometer below the frame. The amplitude of the whole body startle to an acoustic pulse was defined as the average of 100 one-msec accelerometer readings collected from pulse onset. These signals were then digitized and stored by a computer. Sound levels within each test chamber were measured routinely using a sound level meter (Radio Shack) to ensure consistent presentation. The SR-LAB calibration unit was used routinely to ensure consistent stabilimeter sensitivity between test chambers and over time (Swerdlow and Geyer, 1998, Schizophrenia Bulletin, 24(2), 285-301).
(§2) Fifteen minutes before the behavioral procedures conducted at the fourth day, the subject was injected i.p. with an 0.1 mg/kg dose of MK801 or saline, for a total volume of 1 ml per kg of body weight. Next, the subjects passed the three behavioral procedures, described in the following paragraphs.
(§3) ASR and PPI were measured using two startle chambers, with each chamber consisting of a Plexiglas cylinder resting on a platform inside a sound-attenuated, ventilated chamber (see also materials section). The animals were tested in pairs with startle chambers counterbalanced across the different experimental groups.
The ASR test measured the ability of the animal to habituate to repetitive loud pulses of noise. […] Movement inside the tube was detected by a piezoelectric accelerometer below the frame. The amplitude of the whole body startle to an acoustic pulse was defined as the average of 100 one-msec accelerometer readings collected from pulse onset. […]
Acoustic Startle Response (ASR): The decrease in ASR in the groups was calculated as the percent of amplitude decrease between the mean of the first five amplitude values and the mean of the last 25 amplitude values.
Percent habituation=100×[(average startle amplitude in Block 1)−(average startle amplitude in Block 5)/(average startle amplitude in Block 1)]. Results were analyzed by two-way ANOVA a between-subject measure of ‘group’ (treatment group).

MK801 treated rats [2] = assay: Pre-Pulse Inhibition (PPI) paradigm, MK801 animal model; type: in vivo, rat
Experimental: as §1, §2, §3
PPI of the startle response was used as a measure of sensorimotor gating, with the startle chambers used to assess the ability of prepulse stimuli to block the startle response. […]
Pre-Pulse Inhibition (PPI): Startle magnitude is expressed in all the procedures as arbitrary units. Percent PPI (% PPI) was calculated as the mean startle magnitude to stimulus-alone minus the mean startle magnitude to prepulse-stimulus trials, all divided by the mean stimulus-alone trials, and multiplied by 100. The overall mean % PPI was calculated for the four prepulse intensities (72, […], 80, 84 dB). Results were analyzed by two-way ANOVA with a between-subject measure of ‘group’ (difference the treatment groups) and ‘prepulse intensity’ (72, 76, 80, 84 dB).

[3] = system: patients who experience first psychotic episode; assay: SANS (Scale for the Assessment of Negative Symptoms), adjuvant study; type: in vivo, human; details: atypical antipsychotic drug+minocycline 200 mg/day vs +placebo; group x time p<0.01
Experimental: The study was carried out in patients who experience first psychotic episode, and has followed the patient for a total duration of 6 months. As the study examines Minocycline as an adjuvant drug, the sample includes patients receiving one of the following atypical anti-psychotic drugs: Risperdal, Zyprexa, Geodon, Seroquel, and Leponex. […] Initial evaluation included the following clinical measures: • SCID (for reliability of diagnosis) • CGI (Clinical Global Impression) • PANSS (Positive and Negative Syndrome Scale for Schizophrenia) • SANS (Scale for the Assessment of Negative Symptoms) • Calgary Depression Scale for Schizophrenia • GAF • GRAF • Insight and Treatment Attitudes Questionnaire • QLS (Quality of Life Scale) • Multinomah Community Ability Scale • Extrapyramidal Side Effects Scale. Minocycline was given as an add-on therapy. […] Clinical status was evaluated by the aforementioned scales at the onset of the study, every week for the first 6 weeks, and then once a month for the rest of the study period. Cognitive capabilities were assessed by the neuropsychological battery of tests according to the following schedule: upon initiation of the study (referred to as visit 1 in FIGS. 5-8), 3 months (referred to as visit 2 in FIGS. 5-8), and 6 months (referred to as visit 3 in FIGS. 5-8) after the start of the study. […]

[4] = Body weight change 12 weeks after start of treatment, adjuvant study; type: in vivo, human; details: atypical antipsychotic drug+minocycline 200 mg/day
Experimental: The study was carried out in patients who experience first psychotic episode, and has followed the patient for a total duration of 6 months. As the study examines Minocycline as an adjuvant drug, the sample includes patients receiving one of the following atypical anti-psychotic drugs: Risperdal, Zyprexa, Geodon, Seroquel, and Leponex. […] Minocycline was given as an add-on therapy. Prior to randomization into minocycline/placebo adjuvant treatment, a preliminary (lead-in phase) screening phase of placebo treatment was undertaken: Placebo was given as an adjuvant to all patients for two weeks. […] Randomization was then carried out by the principal investigator. The raters and evaluators of the subjects participating in the study were blind to the randomization. […] The body weight of the patients was measured at the start of the study and then 12 weeks later (FIG. 12).

[5] = drug+MK801 0.1 mg/kg i.p., minocycline 35 mg/kg x 3 days pretreatment, haloperidol 0.4 mg/kg i.p.

In the case of `CN(C)c1ccc(O)c2c1C[C@H]1C[C@H]3[C@H](N(C)C)C(O)=C(C(N)=O)C(=O)[C@@]3(O)C(O)=C1C2=O` [minocycline], the “percent habituation of the startle response (% habituation)” value (MK801 treated rats [1]; drug alone (no MK801) vs saline treated animals) is reported as “no effect on habituation of ASR”, the “percent habituation of the startle response (% habituation)” value (MK801 treated rats [1]; [5]) is reported as “able to prevent the deficits induced by MK801” and the “percent of PPI (% PPI)” value (MK801 treated rats [2]; [5]) is reported as “able to reverse the deficits caused by the MK801 treatment”. For the same compound, the “percent of PPI (% PPI)” value (MK801 treated rats [2]; minocycline alone (no MK801) vs saline) was “no statistically significant differences”, the “total SANS score” value [3] was “greater improvement than the placebo group” and the “proportion of patients who gained weight” value [4] was 31%. For the same compound, the “proportion of patients who lost weight” value [4] was 46%.
